From paper PMC11596972, “Synthesis and Antimicrobial Activity of 3-Alkylidene-2-Indolone Derivatives” (Molecules, 2024) come the findings set out here.

Molecules are shown by their SMILES. ≈ marks a conversion by molar mass, not a printed value. Like-named read-outs stand apart in the source and are kept apart here.

Data set [1] deals with E. coli 1924. In words: MIC, double dilution method, E. coli 1924. Type of data set: cell-based, Escherichia coli.
Data set [2] concerns MRSA ATCC 43300. In words: MIC, double dilution method, MRSA ATCC 43300. The data set is classed as cell-based, Methicillin-resistant Staphylococcus aureus. Particulars: Staphylococcus aureus, 24 h, MRSA ATCC 43300, Gram-positive, 24 h culture.
Data set [3] relates to E. coli ATCC 25922. In words: MIC, double dilution method, E. coli ATCC 25922. The note with it: Escherichia coli. The data set is classed as cell-based.
Data set [4] deals with S. aureus 4220. As to the kind of experiment: MIC, double dilution method, S. aureus 4220. Type of data set: cell-based. The note with it: Staphylococcus aureus, 4220, 24 h.
The test system of data set [5] is P. aeruginosa CMCC 10211. In words: MIC, double dilution method, P. aeruginosa CMCC 10211. Particulars: Pseudomonas aeruginosa. The data set is classed as cell-based.
In data set [6] the test system is C. albicans CMCC 98001. As to the kind of experiment: MIC, double dilution method, C. albicans CMCC 98001. Type of data set: cell-based, Candida albicans. Particulars: for MIC: C. albicans CMCC 98001, fungus, 24 h culture.
Data set [7] relates to S. aureus ATCC 6538. In words: MIC, double dilution method, S. aureus ATCC 6538. The data set is classed as cell-based. Particulars: Staphylococcus aureus, ATCC6538, 24 h.
The mark [8] stands for this setting: Escherichia coli, E. coli 1924, Gram-negative, 24 h culture, read-out: MIC.
Setting [9] is: ATCC25922, E. coli ATCC 25922, Gram-negative, 24 h culture, read-out: MIC.
[10] abbreviates: S. aureus 4220, Gram-positive, 24 h culture, read-out: MIC.
Where [11] appears, read: CMCC10211, P. aeruginosa CMCC 10211, Gram-negative, 24 h culture, read-out: MIC.
Where [12] appears, read: Candida albicans, CMCC98001, 24 h, read-out: MIC.
[13] abbreviates: S. aureus ATCC 6538, Gram-positive, 24 h culture, read-out: MIC.
Where [14] appears, read: Candida albicans, CMCC98001, 24 h.

The MIC is the smallest concentration in the dilution series that meets the test's criterion for growth inhibition. A word on the melting point: it is the temperature, or range, at which the solid turns liquid. `C/C(O)=C1/C(=O)N(C)c2ccccc21` [Compound 5a, (Z)-3-(1-hydroxyethylidene)-1-methylindolin-2-one] gave a melting point of 95 to 97 °C. Also, the MIC in data set [1] (setting [8]) worked out at 64 µg/mL (≈ 338 µM). Further, the MIC in data set [2] (read-out: MIC) is above 64 µg/mL. Also, the MIC in data set [3] (setting [9]) was above 64 µg/mL. In addition, in data set [4] (setting [10]), the minimum inhibitory concentration (MIC) came to 64 µg/mL (≈ 338 µM). Further, the minimum inhibitory concentration (MIC) in data set [5] (setting [11]) worked out at 64 µg/mL (≈ 338 µM). Further, in data set [6] (setting [12]), the MIC is 32 µg/mL (≈ 169 µM). In addition, the minimum inhibitory concentration (MIC) in data set [7] (setting [13]) was above 64 µg/mL.
For the molecule `C/C(O)=C1/C(=O)N(C)c2c(Br)cccc21` [Compound 5l, (Z)-7-bromo-3-(1-hydroxyethylidene)-1-methylindolin-2-one], the MIC in data set [1] (setting [8]) was 8 µg/mL (≈ 29.8 µM); in data set [2] (read-out: MIC), 64 µg/mL (≈ 239 µM); in data set [3] (setting [9]) it was above 64 µg/mL; in data set [4] (setting [10]), 32 µg/mL (≈ 119 µM); in data set [5] (setting [11]), above 64 µg/mL; in data set [6] (setting [12]), 64 µg/mL (≈ 239 µM). In addition, the MIC in data set [7] (setting [13]) is 64 µg/mL (≈ 239 µM).
For `CN1C(=O)/C(=C(\O)c2cccs2)c2ccccc21` [Compound 10a, (Z)-3-(hydroxy(thiophen-2-yl)methylene)-1-methylindolin-2-one], the melting point fell in the range of 141 to 143 °C. Besides, the minimum inhibitory concentration (MIC) in data set [1] (setting [8]) is 32 µg/mL (≈ 124 µM). Further, the minimal inhibitory concentration (MIC) in data set [2] (read-out: MIC) worked out at 64 µg/mL (≈ 249 µM). Moreover, in data set [3] (setting [9]), the minimum inhibitory concentration (MIC) was above 64 µg/mL. The minimal inhibitory concentration (MIC) in data set [4] (setting [10]) is above 64 µg/mL. For the same molecule, in data set [5] (setting [11]), the MIC was found to be 64 µg/mL (≈ 249 µM). In data set [6] (setting [12]), the MIC was 64 µg/mL (≈ 249 µM). In data set [7] (setting [13]), the minimal inhibitory concentration (MIC) is 64 µg/mL (≈ 249 µM).
Regarding `C/C(O)=C1/C(=O)N(C)c2cc(Br)ccc21` [Compound 5m, (Z)-6-bromo-3-(1-hydroxyethylidene)-1-methylindolin-2-one], the MIC was 16 µg/mL (≈ 59.7 µM) in data set [1] (setting [8]); 64 µg/mL (≈ 239 µM) in data set [2] (read-out: MIC); above 64 µg/mL in data set [3] (setting [9]); above 64 µg/mL in data set [4] (setting [10]); above 64 µg/mL in data set [5] (setting [11]); 64 µg/mL (≈ 239 µM) in data set [6] (setting [12]). Also, the MIC in data set [7] (setting [13]) is 32 µg/mL (≈ 119 µM).
Regarding `COc1c(N2CCNC(C)C2)c(F)cc2c(=O)c(C(=O)O)cn(C3CC3)c12` (stereo not shown) [Gati, Gatifloxacin, reference compound], the MIC in data set [1] (setting [8]) is 0.5 µg/mL (≈ 1.33 µM); in data set [2] (read-out: MIC), 0.5 µg/mL (≈ 1.33 µM); in data set [3] (setting [9]), 0.5 µg/mL (≈ 1.33 µM); in data set [4] (setting [10]) it was 0.5 µg/mL (≈ 1.33 µM); in data set [5] (setting [11]), 0.5 µg/mL (≈ 1.33 µM); in data set [6] (setting [12]), above 64 µg/mL. The MIC in data set [7] (setting [13]) worked out at 0.5 µg/mL (≈ 1.33 µM).
Take `C/C(O)=C1/C(=O)N(C)c2cccc(F)c21` [Compound 5h, (Z)-4-fluoro-3-(1-hydroxyethylidene)-1-methylindolin-2-one]: the minimal inhibitory concentration (MIC) was 32 µg/mL (≈ 154 µM) in data set [1] (setting [8]); above 64 µg/mL in data set [2] (read-out: MIC); above 64 µg/mL in data set [3] (setting [9]); 64 µg/mL (≈ 309 µM) in data set [4] (setting [10]); above 64 µg/mL in data set [5] (setting [11]); 16 µg/mL (≈ 77.2 µM) in data set [6]. Further, the MIC in data set [6] (setting [12]) was 8 to 16 µg/mL (≈ 38.6 to 77.2 µM); in data set [7] (setting [13]), above 64 µg/mL. In addition, the “antifungal activity (class in words)” value in data set [6] (C. albicans CMCC 98001) is recorded as “moderate antifungal activity”.
Turning to `CN1C(=O)/C(=C(\O)c2ccc(Br)cc2)c2ccccc21` [Compound 10i, (Z)-3-((4-bromophenyl)(hydroxy)methylene)-1-methylindolin-2-one], the minimum inhibitory concentration (MIC) was 8 µg/mL (≈ 24.2 µM) in data set [1] (Escherichia coli, 1924, 24 h); 16 µg/mL (≈ 48.5 µM) in data set [2]; above 64 µg/mL in data set [3] (ATCC25922, 24 h); 16 µg/mL (≈ 48.5 µM) in data set [4]; above 64 µg/mL in data set [5] (CMCC10211, 24 h); above 64 µg/mL in data set [6] (setting [14]). Moreover, in data set [7], the MIC is 2 µg/mL (≈ 6.06 µM).
On to `COc1cccc2c1N(C)C(=O)/C2=C(/C)O` [Compound 5o, (Z)-3-(1-hydroxyethylidene)-7-methoxy-1-methylindolin-2-one], for which the minimal inhibitory concentration (MIC) in data set [1] (setting [8]) is 16 µg/mL (≈ 73 µM); in data set [2] (read-out: MIC) it was 64 µg/mL (≈ 292 µM); in data set [3] (setting [9]), above 64 µg/mL; in data set [4] (setting [10]) it was above 64 µg/mL; in data set [5] (setting [11]), 64 µg/mL (≈ 292 µM); in data set [6] (setting [12]) it was 32 µg/mL (≈ 146 µM). Besides, in data set [7] (setting [13]), the minimum inhibitory concentration (MIC) is above 64 µg/mL.
Turning to `CN1C(=O)/C(=C(\O)c2ccc(Cl)cc2)c2ccccc21` [Compound 10e, (Z)-3-((4-chlorophenyl)(hydroxy)methylene)-1-methylindolin-2-one], the MIC is 8 µg/mL (≈ 28 µM) in data set [1] (Escherichia coli, 1924, 24 h); 16 µg/mL (≈ 56 µM) in data set [2]; 64 µg/mL (≈ 224 µM) in data set [3] (ATCC25922, 24 h); 8 µg/mL (≈ 28 µM) in data set [4]; above 64 µg/mL in data set [5] (CMCC10211, 24 h); 64 µg/mL (≈ 224 µM) in data set [6] (setting [14]). This molecule displayed an MIC in data set [7] of 2 µg/mL (≈ 7 µM).
